Data reported in publication PMC8954523 (Pharmaceutics, 2022).

Assay: Dissolution and solvation thermodynamic functions (van't Hoff; solubility minus sublimation)
Format: physicochemical
Procedure: The dissolution thermodynamic parameters on the standard state were determined using mole fraction unitary units. […] Since the resulting solutions are very dilute, and their densities are very close to those of the pure solvents. The density values of the pure solvents were used in calculations (Table S1). […] The temperature dependences of the experimental solubility were treated mathematically by the van't Hoff equation, and the apparent solution enthalpies ΔHsol0 were determined as follows:(3) ∂(lnX2)/∂T=ΔHsol0/RT^2 […] Next, the apparent solution entropies ΔSsol0 were derived by the equation:(5) ΔGsol0=ΔHso[…] The solvation of one mole of the solute molecules in the solvent can be defined as the total change of the standard thermodynamic functions ( ΔGsolv0 , ΔHsolv0 , ΔSsolv0 ) of the compound upon transferring it from the gaseous phase (ideal gas; single molecules without interaction) into the solvent. The transfer process can be presented as the difference between the dissolution and sublimation thermodynamic functions by:(6) ΔYsolv0=ΔYso[…] where ΔY^0 is the standard change of any of the thermodynamic functions (ΔG^0, ΔH^0, ΔS^0) of solvation ( ΔYsolv0 ), dissolution ( ΔYsol0 ) or sublimation ( ΔYsubo ).

[1] = Table S6, 1-octanol, all studied temperatures
[2] = Table S6, ethanol, all studied temperatures

## CC(O)(CS(=O)(=O)c1ccc(F)cc1)C(=O)Nc1ccc(C#N)c(C(F)(F)F)c1 (stereo not shown) [BCL, bicalutamide]
1-octanol, 298.15 K
  TΔSsol0: 0.263 kcal/mol
  ΔGsol0: 4.9 kcal/mol
  ΔHsol0: 5.16 ± 0.096 kcal/mol
  ΔSsol0: 3.7 ± 3.6 J∙mol^−1·K^−1
  ζHsolv: 63.3%
  ζTSsolv: 36.7%
  −TΔSsolv0: 14.3 kcal/mol
  −ΔGsolv0: 10.3 kcal/mol
  −ΔHsolv0: 24.64 kcal/mol
  −ΔSsolv0: 200.9 J∙mol^−1·K^−1
Table S6, 1-octanol, 293.15 K
  TΔSsol0: 0.265 kcal/mol
  ΔGsol0: 4.897 kcal/mol
  ΔSsol0: 3.79 J∙mol-1·K-1
  ζTSsolv: 36.74%
  −TΔSsolv0: 14.31 kcal/mol
  −ΔGsolv0: 10.33 kcal/mol
Table S6, 1-octanol, 298.15 K
  TΔSsol0: 0.265 kcal/mol
  ΔGsol0: 4.897 kcal/mol
  ΔSsol0: 3.73 J∙mol-1·K-1
  ζTSsolv: 36.74%
  −TΔSsolv0: 14.31 kcal/mol
  −ΔGsolv0: 10.33 kcal/mol
  −ΔSsolv0: 200.87 J∙mol-1·K-1
Table S6, 1-octanol, 303.15 K
  TΔSsol0: 0.275 kcal/mol
  ΔGsol0: 4.888 kcal/mol
  ΔSsol0: 3.81 J∙mol-1·K-1
  ζHsolv: 63.27%
  ζTSsolv: 36.73%
  −TΔSsolv0: 14.3 kcal/mol
  −ΔGsolv0: 10.34 kcal/mol
Table S6, 1-octanol, 308.15 K
  TΔSsol0: 0.272 kcal/mol
  ΔGsol0: 4.89 kcal/mol
  ΔSsol0: 3.70 J∙mol-1·K-1
  ζHsolv: 63.27%
  ζTSsolv: 36.73%
  −TΔSsolv0: 14.31 kcal/mol
  −ΔGsolv0: 10.33 kcal/mol
Table S6, 1-octanol, 313.15 K
  TΔSsol0: 0.287 kcal/mol
  ΔGsol0: 4.876 kcal/mol
  ΔSsol0: 3.82 J∙mol-1·K-1
  ζHsolv: 63.29%
  −ΔSsolv0: 190.96 J∙mol-1·K-1
[1]
  ΔHsol0: 5.16 kcal/mol
  −ΔHsolv0: 24.64 kcal/mol
Table S6, ethanol, 293.15 K
  TΔSsol0: 2.964 kcal/mol
  ΔGsol0: 3.944 kcal/mol
  ΔSsol0: 42.29 J∙mol-1·K-1
  ζHsolv: 66.34%
Table S6, ethanol, 298.15 K
  TΔSsol0: 3.023 kcal/mol
  ΔGsol0: 3.872 kcal/mol
  ΔSsol0: 42.43 J∙mol-1·K-1
  ζTSsolv: 33.54%
  −ΔGsolv0: 11.34 kcal/mol
Table S6, ethanol, 303.15 K
  TΔSsol0: 3.081 kcal/mol
  ΔGsol0: 3.826 kcal/mol
  ΔSsol0: 42.52 J∙mol-1·K-1
  ζTSsolv: 33.43%
  −TΔSsolv0: 11.5 kcal/mol
  −ΔGsolv0: 11.4 kcal/mol
  −ΔSsolv0: 158.70 J∙mol-1·K-1
Table S6, ethanol, 308.15 K
  TΔSsol0: 3.136 kcal/mol
  ΔGsol0: 3.772 kcal/mol
  ΔSsol0: 42.56 J∙mol-1·K-1
  ζTSsolv: 33.32%
  −TΔSsolv0: 11.44 kcal/mol
  −ΔGsolv0: 11.45 kcal/mol
Table S6, ethanol, 313.15 K
  TΔSsol0: 3.162 kcal/mol
  ΔGsol0: 3.745 kcal/mol
  ΔSsol0: 42.24 J∙mol-1·K-1
  ζTSsolv: 33.27%
  −TΔSsolv0: 11.42 kcal/mol
  −ΔGsolv0: 11.48 kcal/mol
[2]
  ΔHsol0: 6.91 kcal/mol
  −ΔHsolv0: 22.9 kcal/mol
Table S6, n-hexane, 293.15 K
  TΔSsol0: 3.537 kcal/mol
  ΔGsol0: 8.222 kcal/mol
